# Test results published in patent publication US7671038B1, “Method of therapeautic treatments including human immunodeficiency virus (HIV) disease and other conditions in a human host by administering adenine nucleotides” (priority 1993, dated 2010).
# Entries after “also recorded” stand apart in the source; their conditions may differ.
# Legend:
# [1] = Phase I continuous intravenous ATP infusions in advanced cancer patients: total blood (red blood cell) ATP levels and adverse effects; format: in vivo, human; settings: after 48 hours of infusion
# Text: In advanced cancer patients with cachexia and malnutrition, the basal blood ATP levels were lower than normal but could be elevated to well above a normal level after ATP infusions.
# [2] = cited from earlier work
# [3] = tested on: tumor-bearing murine models; settings: cited from earlier work
# TNF-α production = settings: cited from earlier work; for TNF-α biosynthesis inhibition: conclusion of Parmely et al.
# endotoxin lethality = settings: mice; cited from earlier work
# T-cells = settings: HIV seropositive individuals (without AIDS); cited from earlier work
# [4] = activated mouse peritoneal macrophages
structure (smiles),measurement,setting,value
"Nc1ncnc2c1ncn2[C@@H]1O[C@H](COP(=O)(O)OP(=O)(O)OP(=O)(O)O)[C@@H](O)[C@H]1O [ATP, adenosine 5′triphosphate]",change of total blood levels of ATP (red blood cell ATP pools),[1]; most patients,doubling
same,total blood ATP levels,[1]; basal levels 0.9-1 mM,1.6 to 2 mM
same,change of blood (red blood cell) ATP levels,"[2]; intravenous infusion 50 μg/kg min, after 24 hours, advanced cancer patients",doubling
same,decline of elevated blood ATP levels after termination of the ATP infusions,[2]; return of total blood ATP to basal levels,declined over a period of several days; also recorded: declined within several days
same,host weight loss,"[3]; cachectic tumor model, murine hosts",markedly inhibit
same,tumor growth,"[3]; elevated ATP levels, tumor-bearing murine models",inhibit
"Nc1ncnc2c1ncn2[C@H]1CC[C@@H](O)C1 [MDL201112, reference compound]",TNF-α biosynthesis inhibition,TNF-α production,potent inhibitors
Nc1ncnc2c1ncn2[C@@H]1O[C@H](CO)[C@@H](O)[C@H]1O [adenosine],RNA levels for TNF-α,TNF-α production; [4],no effect
same,TNF-α production,TNF-α production; [4],inhibited
same,TNF-α biosynthesis inhibition,TNF-α production,potent inhibitors
same,protection against endotoxin lethality,endotoxin lethality,failed to protect
"C[C@H]1O[C@@H](n2cnc3c(N)ncnc32)C[C@@H]1O [ddAdo, 2′,5′-dideoxyadenosine]",cyclic AMP levels,T-cells,reduce
same,proliferative capacity of T-cells to recall antigens and T-cell cytotoxicity,T-cells,increase
